# Like-named read-outs stand apart in the source and are kept apart here.
# Key:
# [1] = tested on: Candida albicans ATCC 10231; assay: Broth microdilution (CLSI), growth, MIC and MFC; format: cell-based; conditions: for MBC/MFC: C. albicans (MFC); for MIC / inhibition at 64 µg/mL: Candida albicans; for MIC: ATCC10231, C. albicans, 48 h at 37 °C; for inhibition at 64 µg/mL: ATCC10231, 64 µg/mL (highest tested concentration), read-out: C. albicans growth inhibition
# [2] = tested on: Staphylococcus epidermidis ATCC 12228; assay: Broth microdilution (CLSI), growth, MIC and MBC; format: cell-based; conditions: for MBC/MFC: S. epidermidis (MBC); for MIC: Staphylococcus epidermidis, ATCC12228, S. epidermidis, 24 h at 37 °C
# [3] = tested on: Staphylococcus aureus ATCC 29213; assay: Broth microdilution (CLSI), growth, MIC and MBC; format: cell-based; conditions: for MBC/MFC: S. aureus (MBC); for MIC / inhibition at 16 µg/mL: Staphylococcus aureus; for MIC: ATCC29213, S. aureus, 24 h at 37 °C; for inhibition at 16 µg/mL: ATCC29213, 16 µg/mL, read-out: inhibition of S. aureus growth
# [4] = tested on: Aspergillus flavus ATCC 9643; assay: Broth microdilution (CLSI), growth, MIC and MFC; format: cell-based; conditions: for MBC/MFC: A. flavus (MFC); for MIC: Aspergillus flavus, ATCC9643, A. flavus, 48 h at 37 °C
# [5] = tested on: Pseudomonas aeruginosa ATCC 15442; assay: Broth microdilution (CLSI), growth, MIC and MBC; format: cell-based; conditions: for MBC/MFC: P. aeruginosa (MBC); for MIC: Pseudomonas aeruginosa, ATCC15442, P. aeruginosa, 24 h at 37 °C
# [6] = tested on: Escherichia coli ATCC 25922; assay: Broth microdilution (CLSI), growth, MIC and MBC; format: cell-based; conditions: for MBC/MFC: E. coli (MBC); for MIC: Escherichia coli, ATCC25922, E. coli, 24 h at 37 °C; for antimicrobial properties against E. coli, ranking in words: among compounds 1–10
# [7] = tested on: human fibroblast BJ ATCC CRL-2522 cell line; assay: Cytotoxic activity, MTT; format: cell-based; conditions: for toxicity to human fibroblasts, ranking in words: among compounds 1–10
# Experimental: The cytotoxic properties of the tested compounds were examined using the human fibroblast BJ ATCC CRL-2522 cell line. The fibroblasts, with a final density of 1 × 10^5 cells per well, were suspended in EMEM medium containing FBS (10%) and antibiotics (penicillin, 100 IU/mL and streptomycin, 100 µg/mL), and incubated in 96-well microplates for 24 h in a humidified atmosphere with 5% CO2 at 37 °C. Next, the EMEM medium was replaced with a fresh medium, with the addition of the tested compounds in the concentration range of 1–64 µg/mL. Cell cultures without the tested derivatives were also prepared, as control samples. All the samples were incubated again for 24 h, under the same conditions. Then, the growth medium was removed from above the fibroblasts, and MTT solution (500 µg/mL) was added to each well. The plates were incubated for 4 h under the same conditions. The MTT solution was removed, and the wells were refilled with 50 µL of DMSO, to dissolve the formazan crystals produced. The spectrophotometric measurement of the samples was carried out at λ = 550 nm, using a SpectraMax i3x Multi-Mode Microplate Reader (Molecular Devices Ltd., Wokingham, UK).
# The cell viability was calculated as a percentage of the control samples untreated with the tested compounds with a standard deviation. The experiment with n = 4 was carried out in four independent repetitions.
# C. albicans = tested on: C. albicans; design: method as in PMID 18570365; conditions: cited from earlier work
# A. fumigatus = tested on: A. fumigatus; design: method as in PMID 18570365; conditions: cited from earlier work
# E. coli [8] = tested on: E. coli; design: method as in Salih et al. 12; conditions: ref Salih et al. 12; cited from earlier work
# S. aureus [9] = tested on: S. aureus; design: method as in Salih et al. 12; conditions: ref Salih et al. 12; cited from earlier work
# S. aureus [10] = tested on: S. aureus; design: method as in PMID 34884610; conditions: cited from earlier work
# E. coli [11] = tested on: E. coli; design: method as in PMID 34884610; conditions: highest tested concentration; cited from earlier work
SMILES,MBC/MFC [1] [µg/mL],MIC [1] [µg/mL],MBC/MFC [2] [µg/mL],MIC [2] [µg/mL],MBC/MFC [3] [µg/mL],MIC [3] [µg/mL],MBC/MFC [4] [µg/mL],MIC [4] [µg/mL],MBC/MFC [5] [µg/mL],MIC [5] [µg/mL],MBC/MFC [6] [µg/mL],MIC [6] [µg/mL],melting point [°C],other results
"Br.C[C@H](NCCCCOc1cccc2[nH]c3ccccc3c12)c1ccccc1 [Compound 10, (S)-4-[4-(1-phenylethylamino)butoxy]-9H-carbazole hydrobromide]",>64,> 64,64,32,64,32,>64,> 64,>64,> 64,>64,> 64,,
"Fc1cccc(CNCCCCOc2cccc3[nH]c4ccccc4c23)c1 [Compound 2, 4-[4-(3-fluorophenylmethylamino)butoxy]-9H-carbazole]",>64,> 64,32,32,32,32,>64,> 64,>64,> 64,>64,> 64,,inhibition at 64 µg/mL [1]: ~60%; inhibition at 16 µg/mL [3]: > 60%
"C[C@@H]1[C@H](O)[C@@H](C)/C=C/C=C/C=C/C=C/C=C/C=C/C=C/[C@H](O[C@@H]2O[C@H](C)[C@@H](O)[C@H](N)[C@@H]2O)C[C@@H]2O[C@](O)(C[C@@H](O)C[C@@H](O)[C@H](O)CC[C@@H](O)C[C@@H](O)CC(=O)O[C@H]1C)C[C@H](O)[C@H]2C(=O)O [Amphotericin B, reference compound]",1,1,,,,,16,4,,,,,,
"Fc1ccccc1CNCCCCOc1cccc2[nH]c3ccccc3c12 [Compound 1, 4-[4-(2-fluorophenylmethylamino)butoxy]-9H-carbazole]",>64,> 64,,64,,64,>64,> 64,>64,> 64,>64,> 64,179 to 181,"reduction of cell viability ([7]; 32 µg/mL, human fibroblasts, 24 h): about 60%; toxicity to human fibroblasts, ranking in words [7]: least toxic"
"Br.Fc1ccccc1CNCCCCOc1cccc2[nH]c3ccccc3c12 [Compound 6, 4-[4-(2-fluorophenylmethylamino)butoxy]-9H-carbazole hydrobromide]",>64,> 64,,64,,64,>64,> 64,>64,> 64,>64,> 64,180 to 182,"inhibition at 64 µg/mL [1]: 15%; antimicrobial properties against E. coli, ranking in words [6]: weakest antimicrobial activity"
"Br.Fc1cccc(CNCCCCOc2cccc3[nH]c4ccccc4c23)c1 [Compound 7, 4-[4-(3-fluorophenylmethylamino)butoxy]-9H-carbazole hydrobromide]",>64,> 64,64,32,64,32,>64,> 64,>64,> 64,>64,> 64,181 to 183,
"Br.Fc1ccc(CNCCCCOc2cccc3[nH]c4ccccc4c23)cc1 [Compound 8, 4-[4-(4-fluorophenylmethylamino)butoxy]-9H-carbazole hydrobromide]",>64,> 64,64,32,64,32,>64,> 64,>64,> 64,>64,> 64,203 to 206,"inhibition at 16 µg/mL [3]: 65%; reduction in E. coli growth ([6]; 64 µg/mL (highest tested concentration)): 50%; antimicrobial properties against E. coli, ranking in words [6]: strongest antimicrobial properties"
"CC1=NN(c2ccccc2)C(=O)C1=NNNC(=O)Cn1c2ccccc2c2ccccc21 [derivative 8, (4-[3-(9H-Carbazol-9-yl-acetyl)triazanylidene]-5-methyl-2-phenyl-2,4-dihydro-3H-pyrazol-3-one)]",,,,,,,,,,,,,,MIC (C. albicans): 9.6 µg/mL; MIC (A. fumigatus): 10.3 µg/mL; MIC (E. coli [8]): 6.4 µg/mL; MIC (S. aureus [9]): 1.1 µg/mL
"C[C@@H](NCCCCOc1cccc2[nH]c3ccccc3c12)c1ccccc1 [Compound 4, (R)-4-[4-(1-phenylethylamino)butoxy]-9H-carbazole]",>64,> 64,32,32,32,32,>64,> 64,>64,> 64,>64,> 64,,inhibition at 16 µg/mL [3]: > 60%
"Fc1ccc(CNCCCCOc2cccc3[nH]c4ccccc4c23)cc1 [Compound 3, 4-[4-(4-fluorophenylmethylamino)butoxy]-9H-carbazole]",>64,> 64,,32,,32,>64,> 64,>64,> 64,>64,> 64,,"antimicrobial properties against E. coli, ranking in words [6]: strongest antimicrobial properties"
"c1ccc(CNCCCCOc2cccc3[nH]c4ccccc4c23)cc1 [parent compound, 4-[4-(benzylamino)butoxy]-9H-carbazole]",,,,,,,,,,,,,,reduction in bacterial growth (S. aureus) (S. aureus [10]; 20 µg/mL): 22%; MIC (S. aureus [10]; S. aureus): 30 µg/mL; inhibition of E. coli growth (E. coli [11]): 10%
"Br.C[C@@H](NCCCCOc1cccc2[nH]c3ccccc3c12)c1ccccc1 [Compound 9, (R)-4-[4-(1-phenylethylamino)butoxy]-9H-carbazole hydrobromide]",>64,> 64,64,32,64,32,>64,> 64,>64,> 64,>64,> 64,92 to 96,"decrease in cell viability ([7]; 4 µg/mL, human fibroblasts, 24 h): 40%; toxicity to human fibroblasts, ranking in words [7]: highest toxicity"
"C[C@H](NCCCCOc1cccc2[nH]c3ccccc3c12)c1ccccc1 [Compound 5, (S)-4-[4-(1-phenylethylamino)butoxy]-9H-carbazole]",>64,> 64,64,32,64,32,>64,> 64,>64,> 64,>64,> 64,,

# — article PMC10530720, “Antimicrobial Activity and Toxicity of Newly Synthesized 4-[4-(benzylamino)butoxy]-9H-carbazole Derivatives” (International Journal of Molecular Sciences, 2023)
